Source: US20230357253A1, “AGONISTS OF STIMULATOR OF INTERFERON GENES STING” (THE SCRIPPS RESEARCH INSTITUTE, priority 2020, published 2023)

Columns and labels:
THP-1 Lucia ISG cells = assay: ISRE-luciferase assay (ISG-LUC activation); type: cell-based; conditions: Homo sapiens, THP1-Lucia ISG, 24 hours, luciferase reporter
Outline: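 THP-1 Lucia ISG cells at 5×10^5 cells/ml in 2% FBS medium were treated with test article or DMSO vehicle for 24 h. Secreted luciferase was read by luminescence and normalized to vehicle, reported as RLU.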

human STING protein = human STING protein (Homo sapiens (Human), UniProt Q86WV6); assay: WT STING binding assay (HTRF, competition with labeled 2′3′cGAMP); conditions: recombinant 6×His-tagged human STING, three hours at room temperature
Outline: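 Competitive HTRF binding: 10-point compound titration incubated 3 h at room temperature with 6×His-tagged human STING and labeled 2′3′cGAMP; FRET read at 665 nm. IC50 by curve fitting; percent inhibition relative to maximal binding of unlabeled 2′3′cGAMP control.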

Sequence of human STING protein (Q86WV6 whole entry): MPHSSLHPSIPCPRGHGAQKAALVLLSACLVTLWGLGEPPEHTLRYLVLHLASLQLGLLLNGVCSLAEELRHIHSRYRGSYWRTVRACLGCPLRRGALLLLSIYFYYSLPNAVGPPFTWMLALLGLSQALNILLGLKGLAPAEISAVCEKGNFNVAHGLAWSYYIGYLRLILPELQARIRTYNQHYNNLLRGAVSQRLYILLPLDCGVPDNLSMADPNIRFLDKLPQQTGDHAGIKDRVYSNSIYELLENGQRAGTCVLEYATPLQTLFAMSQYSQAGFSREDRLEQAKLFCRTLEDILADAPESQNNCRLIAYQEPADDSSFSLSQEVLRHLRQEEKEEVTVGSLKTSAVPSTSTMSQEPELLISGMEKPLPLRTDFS

Structure (SMILES) | EC50 (THP-1 Lucia ISG cells) [nM] | IC50 (human STING protein) [nM]
C#Cc1cc(C(=O)O)c(NC(=O)c2ccc(-n3ccnc3)nn2)cc1CCOc1cc(NC(=O)c2ccc(-n3ccnc3)nn2)c(C(=O)O)cc1F [Compound 183] | 500 to 5000 | 100 to 1000
COC(=O)c1cc(F)c(CCCc2cc(NC(=O)c3ccc4nnnn4n3)c(C(=O)O)cc2F)cc1NC(=O)c1ccc(-n2ccnc2)nn1 [Compound 76] | 50 to 500 | 10 to 100
CCOC(=O)c1cc(F)c(CCCc2cc(NC(=O)c3ccc(-n4ccnc4)nn3)c(C(=O)O)cc2F)cc1NC(=O)c1ccc(-n2ccnc2)nn1 [Compound 173, 2-(6-(1H-imidazol-1-yl)pyridazine-3-carboxamido)-4-(3-(5-(6-(1H-imidazol-1-yl)pyridazine-3-carboxamido)-4-(ethoxycarbonyl)-2-fluorophenyl)propyl)-5-fluorobenzoic acid] | < 50 | 10 to 100
O=C(Nc1cc(OCCc2cc(NC(=O)c3ccc4nnnn4n3)c(C(=O)O)cc2Cl)ccc1C(=O)O)c1ccc(-n2ccnc2)nn1 [Compound 114] | 50 to 500 | 100 to 1000
O=C(Nc1cc(OCCCCOc2cc(NC(=O)c3ccc(-n4ccnc4)nn3)c(C(=O)O)cc2Cl)c(Cl)cc1C(=O)O)c1ccc(-n2ccnc2)nn1 [Compound 50] | 500 to 5000 | 100 to 1000
O=C(Nc1cc(CCCc2cc(C(=O)O)c(NC(=O)c3ccc4nnnn4n3)cc2Cl)ccc1C(=O)O)c1ccc(-n2ccnc2)nn1 [Compound 93] | 50 to 500 | 10 to 100
COc1cc(C(=O)O)c(NC(=O)c2ccc3nnnn3n2)cc1CCCc1cnc(C(=O)O)c(NC(=O)c2ccc(-n3ccnc3)nn2)c1 [Compound 85] | > 5000 | 100 to 1000
O=C(Nc1cc(CCCc2cc(NC(=O)c3ccc4nnnn4n3)c(C(=O)O)cc2F)ccc1C(=O)O)c1ccc(-n2ccnc2)nn1 [Compound 89] | 50 to 500 | 10 to 100
O=C(Nc1cc(CCc2cc(NC(=O)c3ccc(-n4ccnc4)nn3)c(C(=O)O)cc2F)c(F)cc1C(=O)O)c1ccc(-n2ccnc2)nn1 [Compound 187] | 50 to 500 | 10 to 100
O=C(Nc1cc(OCCCCOc2cc(NC(=O)c3ccc4nnnn4n3)c(C(=O)O)cc2F)ccc1C(=O)O)c1ccc(-n2ccnc2)nn1 [Compound 74] | > 5000 | 10 to 100
COc1cc(NC(=O)c2ccc3nnnn3n2)c(C(=O)O)cc1OCCc1cc(NC(=O)c2ccc(-n3ccnc3)nn2)c(C(=O)O)cc1F [Compound 147] | > 5000 | 100 to 1000
CN(Cc1cc(NC(=O)c2ccc(-n3ccnc3)nn2)c(C(=O)O)cc1F)Cc1cc(NC(=O)c2ccc(-n3ccnc3)nn2)c(C(=O)O)cc1F [Compound 8, 4,4′-((methylazanediyl)bis(methylene))bis(2-(6-(1H-imidazol-1-yl)pyridazine-3-carboxamido)-5-fluorobenzoic acid)] | 500 to 5000 | < 10

Now from value to compound:

EC50 (THP-1 Lucia ISG cells) [nM] | IC50 (human STING protein) [nM] | Structure (SMILES)
500 to 5000 | 100 to 1000 | O=c1oc(-c2ccc(-n3ccnc3)nn2)nc2cc(OCCCCOc3cc4nc(-c5ccc(-n6ccnc6)nn5)oc(=O)c4cc3F)ccc12 [Compound 46]
50 to 500 | 10 to 100 | O=C(Nc1cc(CCCc2cc(NC(=O)c3ccc4nnnn4n3)c(C(=O)O)nc2Cl)ccc1C(=O)O)c1ccc(-n2ccnc2)nn1 [Compound 87]
> 5000 | 100 to 1000 | O=C(Nc1cc(OCCCCOc2ccc(C(=O)O)c(NC(=O)c3ccc4nnnn4n3)c2)ccc1C(=O)O)c1ccc(-n2ccnc2)nn1 [Compound 20]
50 to 500 | 10 to 100 | Nc1cc(C(=O)Nc2cc(OCCc3cc(NC(=O)c4ccc(-n5ccnc5)nn4)c(C(=O)O)cc3F)c(F)cc2C(=O)O)nn2nnnc12 [Compound 137]
50 to 500 | 10 to 100 | COc1cc(C(=O)O)c(NC(=O)c2ccc3nnnn3n2)cc1CCCc1cc(NC(=O)c2ccc(-n3ccnc3)nn2)c(C(=O)O)cc1F [Compound 115]
50 to 500 | 10 to 100 | O=C(Nc1cc(CCCCc2cc(NC(=O)c3ccc(-n4ccnc4)nn3)c(C(=O)O)cc2F)c(F)cc1C(=O)O)c1ccc(-n2ccnc2)nn1 [Compound 202]
500 to 5000 | 100 to 1000 | O=C(Nc1cc(OCCCCOc2cc(NC(=O)c3ccc(-n4ccnc4)nn3)c(C(=O)O)cc2F)c(F)cc1C(=O)O)c1ccc(-n2ccnc2)nn1 [Compound 17]
> 5000 | 100 to 1000 | N#Cc1nnn2nc(C(=O)Nc3cc(CCOc4cc(NC(=O)c5ccc(-n6ccnc6)nn5)c(C(=O)O)cc4F)c(F)cc3C(=O)O)ccc12 [Compound 136]
50 to 500 | 10 to 100 | COc1cc(NC(=O)c2ccc(-n3ccnc3)nn2)c(C(=O)O)cc1OCCc1cc(NC(=O)c2ccc(-n3ccnc3)nn2)c(C(=O)O)cc1F [Compound 142]
> 5000 | 10 to 100 | O=C(Nc1cc(OCCCCOc2cnc(C(=O)O)c(NC(=O)c3ccc(-n4ccnc4)nn3)c2)c(F)cc1C(=O)O)c1ccc2nnnn2n1 [Compound 64]
